The source of these data is ChEMBL document CHEMBL3414527, “Engineering potent and selective analogues of GpTx-1, a tarantula venom peptide antagonist of the Na(V)1.7 sodium channel” (J Med Chem, 2015).

Experiment [1] concerns the target Sodium channel protein type 5 subunit alpha (Homo sapiens, UniProt Q14524). Briefly: Inhibition of human NaV1.5 at -140 mV holding potential by whole-cell patch clamp assay. (In general: The patch-clamp technique gives a direct electrical read-out from membranes.)
Experiment [2] concerns the target Sodium channel protein type 9 subunit alpha (Homo sapiens, UniProt Q15858). Briefly: Inhibition of human NaV1.7 at -140 mV holding potential by whole-cell patch clamp assay.

SMILES strings stand for the structures. Bridge positions count the residues as written; N and C are the ends. Peptide text beside a SMILES is read from it.

Sodium channel protein type 5 subunit alpha, sequence (Q14524 whole entry): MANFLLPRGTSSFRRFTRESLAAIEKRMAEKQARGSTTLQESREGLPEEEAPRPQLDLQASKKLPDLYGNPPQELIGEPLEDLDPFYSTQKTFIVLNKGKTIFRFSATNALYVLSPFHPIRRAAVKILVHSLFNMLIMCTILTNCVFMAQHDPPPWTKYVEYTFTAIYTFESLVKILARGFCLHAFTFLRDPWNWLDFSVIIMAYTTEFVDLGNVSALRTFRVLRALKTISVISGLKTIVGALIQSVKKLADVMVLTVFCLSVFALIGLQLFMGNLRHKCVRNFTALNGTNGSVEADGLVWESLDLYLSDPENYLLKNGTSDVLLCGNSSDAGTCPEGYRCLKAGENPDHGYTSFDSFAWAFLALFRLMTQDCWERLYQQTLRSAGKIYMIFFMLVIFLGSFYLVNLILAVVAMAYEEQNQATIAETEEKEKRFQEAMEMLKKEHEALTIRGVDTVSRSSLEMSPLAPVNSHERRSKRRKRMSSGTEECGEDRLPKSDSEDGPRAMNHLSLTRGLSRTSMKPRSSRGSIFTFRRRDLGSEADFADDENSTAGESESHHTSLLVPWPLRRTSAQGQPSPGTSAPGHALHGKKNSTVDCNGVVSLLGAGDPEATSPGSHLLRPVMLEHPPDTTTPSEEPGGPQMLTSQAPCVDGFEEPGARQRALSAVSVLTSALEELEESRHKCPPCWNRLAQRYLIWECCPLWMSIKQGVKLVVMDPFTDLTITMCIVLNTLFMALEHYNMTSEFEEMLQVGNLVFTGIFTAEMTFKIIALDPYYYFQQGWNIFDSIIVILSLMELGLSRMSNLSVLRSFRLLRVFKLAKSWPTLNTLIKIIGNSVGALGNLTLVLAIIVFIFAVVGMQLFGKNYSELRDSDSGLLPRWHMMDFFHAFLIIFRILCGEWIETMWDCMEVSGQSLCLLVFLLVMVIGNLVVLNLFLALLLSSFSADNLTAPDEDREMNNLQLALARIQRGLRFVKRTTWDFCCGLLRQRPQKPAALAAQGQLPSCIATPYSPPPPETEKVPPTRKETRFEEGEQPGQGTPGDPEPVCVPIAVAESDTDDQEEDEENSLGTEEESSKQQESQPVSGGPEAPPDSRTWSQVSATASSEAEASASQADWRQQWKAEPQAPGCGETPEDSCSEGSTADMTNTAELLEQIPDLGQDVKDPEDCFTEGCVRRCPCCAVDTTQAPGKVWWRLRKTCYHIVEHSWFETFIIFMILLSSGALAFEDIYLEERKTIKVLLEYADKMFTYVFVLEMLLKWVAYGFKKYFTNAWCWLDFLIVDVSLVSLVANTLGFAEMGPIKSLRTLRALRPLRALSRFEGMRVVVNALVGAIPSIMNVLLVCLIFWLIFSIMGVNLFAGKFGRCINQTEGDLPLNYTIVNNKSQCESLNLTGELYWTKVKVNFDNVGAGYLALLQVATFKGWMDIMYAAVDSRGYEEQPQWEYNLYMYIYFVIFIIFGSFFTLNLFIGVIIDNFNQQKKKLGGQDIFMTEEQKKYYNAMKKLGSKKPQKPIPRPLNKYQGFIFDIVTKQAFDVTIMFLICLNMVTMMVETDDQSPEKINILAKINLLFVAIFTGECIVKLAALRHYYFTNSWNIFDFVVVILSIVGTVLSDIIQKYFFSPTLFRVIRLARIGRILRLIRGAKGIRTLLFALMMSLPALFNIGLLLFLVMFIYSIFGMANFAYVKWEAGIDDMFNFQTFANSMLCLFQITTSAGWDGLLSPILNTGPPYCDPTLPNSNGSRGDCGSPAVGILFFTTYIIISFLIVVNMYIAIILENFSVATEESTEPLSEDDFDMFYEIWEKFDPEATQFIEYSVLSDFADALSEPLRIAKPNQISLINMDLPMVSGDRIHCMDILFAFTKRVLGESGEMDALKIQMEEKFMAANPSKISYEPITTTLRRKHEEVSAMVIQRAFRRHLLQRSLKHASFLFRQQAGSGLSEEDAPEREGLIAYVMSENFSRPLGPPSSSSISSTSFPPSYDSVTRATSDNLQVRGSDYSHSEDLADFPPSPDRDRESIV
Sodium channel protein type 9 subunit alpha, sequence (Q15858 whole entry): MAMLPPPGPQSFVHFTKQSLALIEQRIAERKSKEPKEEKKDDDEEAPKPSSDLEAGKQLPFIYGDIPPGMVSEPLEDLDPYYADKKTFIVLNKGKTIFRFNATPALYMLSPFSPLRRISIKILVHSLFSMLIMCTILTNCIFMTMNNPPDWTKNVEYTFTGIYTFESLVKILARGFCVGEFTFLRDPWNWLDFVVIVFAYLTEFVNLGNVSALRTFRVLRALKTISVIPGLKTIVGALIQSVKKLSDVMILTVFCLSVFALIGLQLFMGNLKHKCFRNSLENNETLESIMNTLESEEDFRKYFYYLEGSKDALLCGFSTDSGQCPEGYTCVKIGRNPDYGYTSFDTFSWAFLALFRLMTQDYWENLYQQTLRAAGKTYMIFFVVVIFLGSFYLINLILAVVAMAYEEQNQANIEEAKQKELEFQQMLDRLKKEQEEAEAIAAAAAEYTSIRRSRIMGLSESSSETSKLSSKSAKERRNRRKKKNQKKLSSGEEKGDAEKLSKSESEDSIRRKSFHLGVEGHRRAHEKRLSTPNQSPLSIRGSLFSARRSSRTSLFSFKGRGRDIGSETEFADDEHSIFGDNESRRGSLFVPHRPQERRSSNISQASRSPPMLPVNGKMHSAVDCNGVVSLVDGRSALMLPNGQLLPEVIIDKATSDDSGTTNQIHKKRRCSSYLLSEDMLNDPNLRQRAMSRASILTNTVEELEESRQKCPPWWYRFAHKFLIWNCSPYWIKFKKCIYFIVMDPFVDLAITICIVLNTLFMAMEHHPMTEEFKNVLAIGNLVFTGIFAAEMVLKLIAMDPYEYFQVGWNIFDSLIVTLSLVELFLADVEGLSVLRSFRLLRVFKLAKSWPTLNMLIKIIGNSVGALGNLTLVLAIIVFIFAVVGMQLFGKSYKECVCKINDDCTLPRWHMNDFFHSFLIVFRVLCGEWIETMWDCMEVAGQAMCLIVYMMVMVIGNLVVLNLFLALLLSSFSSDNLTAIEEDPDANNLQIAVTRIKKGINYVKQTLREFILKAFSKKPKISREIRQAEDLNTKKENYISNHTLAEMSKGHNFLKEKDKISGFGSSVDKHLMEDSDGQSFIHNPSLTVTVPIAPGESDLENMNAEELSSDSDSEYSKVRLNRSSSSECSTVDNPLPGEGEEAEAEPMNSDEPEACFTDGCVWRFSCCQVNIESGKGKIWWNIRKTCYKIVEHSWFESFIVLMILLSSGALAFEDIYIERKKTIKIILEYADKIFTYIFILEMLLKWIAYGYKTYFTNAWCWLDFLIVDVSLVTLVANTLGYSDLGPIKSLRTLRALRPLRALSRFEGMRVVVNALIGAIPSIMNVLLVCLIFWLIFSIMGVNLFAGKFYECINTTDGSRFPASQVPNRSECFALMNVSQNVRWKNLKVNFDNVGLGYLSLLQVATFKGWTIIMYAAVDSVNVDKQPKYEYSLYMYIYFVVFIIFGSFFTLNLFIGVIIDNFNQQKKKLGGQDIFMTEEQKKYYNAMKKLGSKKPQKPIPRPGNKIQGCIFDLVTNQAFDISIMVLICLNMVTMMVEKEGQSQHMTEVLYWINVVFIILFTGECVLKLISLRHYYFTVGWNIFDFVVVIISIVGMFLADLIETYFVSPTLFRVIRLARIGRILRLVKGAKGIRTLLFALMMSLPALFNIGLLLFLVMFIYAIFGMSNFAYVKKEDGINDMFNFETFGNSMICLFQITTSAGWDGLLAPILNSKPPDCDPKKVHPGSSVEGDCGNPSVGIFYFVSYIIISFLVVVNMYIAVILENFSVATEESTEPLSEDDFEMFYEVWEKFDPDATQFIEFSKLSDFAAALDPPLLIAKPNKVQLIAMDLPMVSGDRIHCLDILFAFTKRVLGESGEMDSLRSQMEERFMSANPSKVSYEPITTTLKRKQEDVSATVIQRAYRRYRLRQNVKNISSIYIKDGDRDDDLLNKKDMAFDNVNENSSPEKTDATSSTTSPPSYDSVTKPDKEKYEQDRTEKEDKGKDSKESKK

With `CC[C@H](C)[C@@H]1NC(=O)[C@@H]2CSSC[C@@H]3NC(=O)[C@H](C(C)C)NC(=O)[C@H](CC(C)C)NC(=O)[C@H](CC(N)=O)NC(=O)[C@@H]4CCCN4C(=O)[C@H](CCCNC(=N)N)NC(=O)[C@H](CSSC[C@H](NC(=O)[C@@H](N)CC(=O)O)C(=O)N[C@@H](CC(C)C)C(=O)NCC(=O)N[C@@H](CC4CCCCC4)C(=O)N[C@@H](CCSC)C(=O)N[C@@H](CCCNC(=N)N)C(=O)N[C@@H](CCCCN)C(=O)N2)NC(=O)[C@H](CSSC[C@@H](C(=O)N[C@@H](CCCCN)C(=O)N[C@@H](Cc2ccc(O)cc2)C(=O)N[C@H](C(=O)N[C@@H](Cc2ccccc2)C(N)=O)C(C)C)NC(=O)[C@H](Cc2c[nH]c4ccccc24)NC(=O)[C@H](CCCCN)NC(=O)[C@H](Cc2cnc[nH]2)NC(=O)[C@H]([C@@H](C)O)NC(=O)[C@H](CCCNC(=N)N)NC(=O)[C@H](CO)NC3=O)NC(=O)[C@H](CCCCN)NC(=O)[C@H](CC(=O)O)NC(=O)[C@H](CC(N)=O)NC(=O)[C@H](CC(=O)O)NC(=O)[C@@H]2CCCN2C1=O`, the figures for the half-inhibitory concentration (IC50) in experiment [1] and in experiment [2] were 3500 nM and 4 nM, respectively.

In the case of `CC[C@H](C)[C@@H]1NC(=O)[C@@H]2CSSC[C@@H]3NC(=O)[C@H](C(C)C)NC(=O)[C@H](CC(C)C)NC(=O)[C@H](CC(N)=O)NC(=O)[C@@H]4CCCN4C(=O)[C@H](CCCNC(=N)N)NC(=O)[C@H](CSSC[C@H](NC(=O)[C@@H](N)CC(=O)O)C(=O)N[C@@H](CC(C)C)C(=O)NCC(=O)N[C@@H](C4CCCCC4)C(=O)N[C@@H](CCSC)C(=O)N[C@@H](CCCNC(=N)N)C(=O)N[C@@H](CCCCN)C(=O)N2)NC(=O)[C@H](CSSC[C@@H](C(=O)N[C@@H](CCCCN)C(=O)N[C@@H](Cc2ccc(O)cc2)C(=O)N[C@H](C(=O)N[C@@H](Cc2ccccc2)C(N)=O)C(C)C)NC(=O)[C@H](Cc2c[nH]c4ccccc24)NC(=O)[C@H](CCCCN)NC(=O)[C@H](Cc2cnc[nH]2)NC(=O)[C@H]([C@@H](C)O)NC(=O)[C@H](CCCNC(=N)N)NC(=O)[C@H](CO)NC3=O)NC(=O)[C@H](CCCCN)NC(=O)[C@H](CC(=O)O)NC(=O)[C@H](CC(N)=O)NC(=O)[C@H](CC(=O)O)NC(=O)[C@@H]2CCCN2C1=O`, the IC50 in experiment [1] was above 10000 nM; in experiment [2], 6 nM. The matching figures for `CC[C@H](C)[C@@H]1NC(=O)[C@@H]2CSSC[C@@H]3NC(=O)[C@H](C(C)C)NC(=O)[C@H](CC(C)C)NC(=O)[C@H](CC(N)=O)NC(=O)[C@@H]4CCCN4C(=O)[C@H](CCCNC(=N)N)NC(=O)[C@H](CSSC[C@H](NC(=O)[C@@H](N)CC(=O)O)C(=O)N[C@@H](CC(C)C)C(=O)NCC(=O)N[C@@H](Cc4ccc(I)cc4)C(=O)N[C@@H](CCSC)C(=O)N[C@@H](CCCNC(=N)N)C(=O)N[C@@H](CCCCN)C(=O)N2)NC(=O)[C@H](CSSC[C@@H](C(=O)N[C@@H](CCCCN)C(=O)N[C@@H](Cc2ccc(O)cc2)C(=O)N[C@H](C(=O)N[C@@H](Cc2ccccc2)C(N)=O)C(C)C)NC(=O)[C@H](Cc2c[nH]c4ccccc24)NC(=O)[C@H](CCCCN)NC(=O)[C@H](Cc2cnc[nH]2)NC(=O)[C@H]([C@@H](C)O)NC(=O)[C@H](CCCNC(=N)N)NC(=O)[C@H](CO)NC3=O)NC(=O)[C@H](CCCCN)NC(=O)[C@H](CC(=O)O)NC(=O)[C@H](CC(N)=O)NC(=O)[C@H](CC(=O)O)NC(=O)[C@@H]2CCCN2C1=O`: above 10000 nM and 236 nM.

As for `CC[C@H](C)[C@@H]1NC(=O)[C@@H]2CSSC[C@@H]3NC(=O)[C@H](C(C)C)NC(=O)[C@H](CC(C)C)NC(=O)[C@H](CC(N)=O)NC(=O)[C@@H]4CCCN4C(=O)[C@H](CCCNC(=N)N)NC(=O)[C@H](CSSC[C@H](NC(=O)[C@@H](N)CC(=O)O)C(=O)N[C@@H](CC(C)C)C(=O)NCC(=O)N[C@@H](Cc4ccc(-c5ccccc5)cc4)C(=O)N[C@@H](CCSC)C(=O)N[C@@H](CCCNC(=N)N)C(=O)N[C@@H](CCCCN)C(=O)N2)NC(=O)[C@H](CSSC[C@@H](C(=O)N[C@@H](CCCCN)C(=O)N[C@@H](Cc2ccc(O)cc2)C(=O)N[C@H](C(=O)N[C@@H](Cc2ccccc2)C(N)=O)C(C)C)NC(=O)[C@H](Cc2c[nH]c4ccccc24)NC(=O)[C@H](CCCCN)NC(=O)[C@H](Cc2cnc[nH]2)NC(=O)[C@H]([C@@H](C)O)NC(=O)[C@H](CCCNC(=N)N)NC(=O)[C@H](CO)NC3=O)NC(=O)[C@H](CCCCN)NC(=O)[C@H](CC(=O)O)NC(=O)[C@H](CC(N)=O)NC(=O)[C@H](CC(=O)O)NC(=O)[C@@H]2CCCN2C1=O`, in experiment [2], the half-inhibitory concentration (IC50) amounted to 86 nM. As to `CC[C@H](C)[C@@H]1NC(=O)[C@@H]2CSSC[C@@H]3NC(=O)[C@H](C(C)C)NC(=O)[C@H](CC(C)C)NC(=O)[C@H](CC(N)=O)NC(=O)[C@@H]4CCCN4C(=O)[C@H](CCCNC(=N)N)NC(=O)[C@H](CSSC[C@H](NC(=O)[C@@H](N)CC(=O)O)C(=O)N[C@@H](CC(C)C)C(=O)NCC(=O)N[C@@H](Cc4ccccc4)C(=O)N[C@@H](CC4CCCCC4)C(=O)N[C@@H](CCCNC(=N)N)C(=O)N[C@@H](CCCCN)C(=O)N2)NC(=O)[C@H](CSSC[C@@H](C(=O)N[C@@H](CCCCN)C(=O)N[C@@H](Cc2ccc(O)cc2)C(=O)N[C@H](C(=O)N[C@@H](Cc2ccccc2)C(N)=O)C(C)C)NC(=O)[C@H](Cc2c[nH]c4ccccc24)NC(=O)[C@H](CCCCN)NC(=O)[C@H](Cc2cnc[nH]2)NC(=O)[C@H]([C@@H](C)O)NC(=O)[C@H](CCCNC(=N)N)NC(=O)[C@H](CO)NC3=O)NC(=O)[C@H](CCCCN)NC(=O)[C@H](CC(=O)O)NC(=O)[C@H](CC(N)=O)NC(=O)[C@H](CC(=O)O)NC(=O)[C@@H]2CCCN2C1=O`, the values for the IC50 in experiment [1] and in experiment [2] were 2800 nM and 4 nM, respectively. Consider `CC[C@H](C)[C@@H]1NC(=O)[C@@H]2CSSC[C@@H]3NC(=O)[C@H](C(C)C)NC(=O)[C@H](CC(C)C)NC(=O)[C@H](CC(N)=O)NC(=O)[C@@H]4CCCN4C(=O)[C@H](CCCNC(=N)N)NC(=O)[C@H](CSSC[C@H](NC(=O)[C@@H](N)CC(=O)O)C(=O)N[C@@H](CC(C)C)C(=O)NCC(=O)N[C@@H](Cc4ccccc4)C(=O)N[C@@H](Cc4cccc5ccccc45)C(=O)N[C@@H](CCCNC(=N)N)C(=O)N[C@@H](CCCCN)C(=O)N2)NC(=O)[C@H](CSSC[C@@H](C(=O)N[C@@H](CCCCN)C(=O)N[C@@H](Cc2ccc(O)cc2)C(=O)N[C@H](C(=O)N[C@@H](Cc2ccccc2)C(N)=O)C(C)C)NC(=O)[C@H](Cc2c[nH]c4ccccc24)NC(=O)[C@H](CCCCN)NC(=O)[C@H](Cc2cnc[nH]2)NC(=O)[C@H]([C@@H](C)O)NC(=O)[C@H](CCCNC(=N)N)NC(=O)[C@H](CO)NC3=O)NC(=O)[C@H](CCCCN)NC(=O)[C@H](CC(=O)O)NC(=O)[C@H](CC(N)=O)NC(=O)[C@H](CC(=O)O)NC(=O)[C@@H]2CCCN2C1=O`, for which the figures for the IC50 in experiment [1] and in experiment [2] were 400 nM and 4 nM, respectively.

Consider `CC[C@H](C)[C@@H]1NC(=O)[C@@H]2CSSC[C@@H]3NC(=O)[C@H](C(C)C)NC(=O)[C@H](CC(C)C)NC(=O)[C@H](CC(N)=O)NC(=O)[C@@H]4CCCN4C(=O)[C@H](CCCNC(=N)N)NC(=O)[C@H](CSSC[C@H](NC(=O)[C@@H](N)CC(=O)O)C(=O)N[C@@H](CC(C)C)C(=O)NCC(=O)N[C@@H](Cc4ccccc4)C(=O)N[C@@H](CCSC)C(=O)N[C@@H](CCCNC(=N)N)C(=O)N[C@@H](CCCCN)C(=O)N2)NC(=O)[C@H](CSSC[C@@H](C(=O)N[C@@H](CCCCN)C(=O)N[C@@H](Cc2ccc(O)cc2)C(=O)N[C@H](C(=O)N[C@@H](Cc2ccccc2)C(N)=O)C(C)C)NC(=O)[C@H](Cc2c[nH]c4ccccc24)NC(=O)[C@H](CCCNC(=N)N)NC(=O)[C@H](Cc2cnc[nH]2)NC(=O)[C@H]([C@@H](C)O)NC(=O)[C@H](CCCNC(=N)N)NC(=O)[C@H](CO)NC3=O)NC(=O)[C@H](CCCCN)NC(=O)[C@H](CC(=O)O)NC(=O)[C@H](CC(N)=O)NC(=O)[C@H](CC(=O)O)NC(=O)[C@@H]2CCCN2C1=O`, for which, in experiment [2], the IC50 was 8 nM.

In experiment [2], `CC[C@H](C)[C@@H]1NC(=O)[C@@H]2CSSC[C@@H]3NC(=O)[C@H](C(C)C)NC(=O)[C@H](CC(C)C)NC(=O)[C@H](CC(N)=O)NC(=O)[C@@H]4CCCN4C(=O)[C@H](CCCNC(=N)N)NC(=O)[C@H](CSSC[C@H](NC(=O)[C@@H](N)CC(=O)O)C(=O)N[C@@H](CC(C)C)C(=O)NCC(=O)N[C@@H](Cc4ccccc4)C(=O)N[C@@H](CCSC)C(=O)N[C@@H](CCCNC(=N)N)C(=O)N[C@@H](CCCCN)C(=O)N2)NC(=O)[C@H](CSSC[C@@H](C(=O)N[C@@H](CCCCN)C(=O)N[C@@H](Cc2ccc(O)cc2)C(=O)N[C@H](C(=O)N[C@@H](Cc2ccccc2)C(N)=O)C(C)C)NC(=O)[C@H](Cc2c[nH]c4ccccc24)NC(=O)[C@H](CCCCN)NC(=O)[C@H](Cc2cnc[nH]2)NC(=O)[C@H](Cc2cnc[nH]2)NC(=O)[C@H](CCCNC(=N)N)NC(=O)[C@H](CO)NC3=O)NC(=O)[C@H](CCCCN)NC(=O)[C@H](CC(=O)O)NC(=O)[C@H](CC(N)=O)NC(=O)[C@H](CC(=O)O)NC(=O)[C@@H]2CCCN2C1=O` (H-DCLGFMRKCIPDNDKCCRPNLVCSRHHKWCKYVF-NH2; disulfide 2-17, 9-23, 16-30) gave a concentration for half-maximal inhibition (IC50) of 4 nM.

Consider `CC[C@H](C)[C@@H]1NC(=O)[C@@H]2CSSC[C@@H]3NC(=O)[C@H](C(C)C)NC(=O)[C@H](CC(C)C)NC(=O)[C@H](CC(N)=O)NC(=O)[C@@H]4CCCN4C(=O)[C@H](CCCNC(=N)N)NC(=O)[C@H](CSSC[C@H](NC(=O)[C@@H](N)CC(=O)O)C(=O)N[C@@H](CC(C)C)C(=O)NCC(=O)N[C@@H](CCSC)C(=O)N[C@@H](CCSC)C(=O)N[C@@H](CCCNC(=N)N)C(=O)N[C@@H](CCCCN)C(=O)N2)NC(=O)[C@H](CSSC[C@@H](C(=O)N[C@@H](CCCCN)C(=O)N[C@@H](Cc2ccc(O)cc2)C(=O)N[C@H](C(=O)N[C@@H](Cc2ccccc2)C(N)=O)C(C)C)NC(=O)[C@H](Cc2c[nH]c4ccccc24)NC(=O)[C@H](CCCCN)NC(=O)[C@H](Cc2cnc[nH]2)NC(=O)[C@H]([C@@H](C)O)NC(=O)[C@H](CCCNC(=N)N)NC(=O)[C@H](CO)NC3=O)NC(=O)[C@H](CCCCN)NC(=O)[C@H](CC(=O)O)NC(=O)[C@H](CC(N)=O)NC(=O)[C@H](CC(=O)O)NC(=O)[C@@H]2CCCN2C1=O` (H-DCLGMMRKCIPDNDKCCRPNLVCSRTHKWCKYVF-NH2; disulfide 2-17, 9-23, 16-30), for which, in experiment [1], the half-maximal inhibitory concentration (IC50) was above 10000 nM.

In general, IC50 refers to the concentration needed to halve the response being measured. High values mean weaker potency in that assay, low ones greater potency in that assay.
